In patent US20040248887A1, “Inhibitors of cathepsin S” (IRM LLC, priority 2003, published 2004):
Like-named read-outs stand apart in the source and are kept apart here.

Assays:
Format in all cases: biochemical
Cathepsin L = Cathepsin L (Homo sapiens, UniProt P07711); test: Cathepsin L inhibition, fluorogenic peptide substrate kinetic assay; settings: Table III; Cathepsin L inhibition constant, pH5.5; read-out: Ki Cat. L
Experimental: (§1) Kinetic measurements are performed in a total reaction volume of 30 μl in 384-well microtiter plates. […] The reactions are initiated by adding the substrate, acetyl-histidine-lysine-phenylalanine-lysine-amino carbamoyl coumarin, to a final concentration of 20 μM. The rate of substrate hydrolysis is measured by monitoring the increase in fluorescence at an excitation wavelength of 380 nm and an emission wavelength of 450 nm that results from cleavage of the aniline bond in the substrate by the enzyme. The apparent inhibition constants for the compounds are determined from the enzyme progress curves (Kuzmic, P., K. C. Elrod, et al., Anal Biochem 2000, 286(1), 45-50) and are then used to calculate the inhibition constants for competitive inhibitors.

Cathepsin K = biological target: T1, Cathepsin K (Homo sapiens, UniProt P43235); test: Cathepsin K inhibition, fluorogenic peptide substrate kinetic assay; settings: Table III; Cathepsin K inhibition constant, pH5.5; read-out: Ki Cat. K
T1 sequence (P43235 115-329): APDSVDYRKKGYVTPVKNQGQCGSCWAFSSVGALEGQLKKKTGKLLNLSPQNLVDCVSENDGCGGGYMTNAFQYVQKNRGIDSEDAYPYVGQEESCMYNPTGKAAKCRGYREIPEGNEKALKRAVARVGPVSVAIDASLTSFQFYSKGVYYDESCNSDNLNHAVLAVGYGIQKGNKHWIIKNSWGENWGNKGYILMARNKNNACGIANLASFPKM
Experimental: as §1, with “The optimal substrate for cathepsin K, acetyl-lysine-histidine-proline-lysine-amino carbamoyl coumarin, was identified from screening a combinatorial library of fluorogenic peptide substrates (Harris, J. L., B. J. Backes, et al., Proc Natl Acad Sci U S A 2000, 97(14), 7754-9). Kinetic” for “Kinetic”, “substrate, acetyl-lysine-histidine-proline-lysine-amino” for “substrate, acetyl-histidine-lysine-phenylalanine-lysine-amino”, “of 40” for “of 20”

Cathepsin B = Cathepsin B (Homo sapiens, UniProt P07858); test: Cathepsin B inhibition, fluorogenic peptide substrate kinetic assay; settings: Table III; Cathepsin B inhibition constant, pH5.5; read-out: Ki Cat. B
Experimental: The optimal substrate for cathepsin B, acetyl-histidine-proline-valine-lysine-amino carbamoyl coumarin, was identified from screening a combinatorial library of fluorogenic peptide substrates (Harris, J. L., B. J. Backes, et al., Proc Natl Acad Sci USA 2000, 97(14), 7754-9). Kinetic measurements are performed in a total reaction volume of 30 μl in 384-well microtiter plates. Cathepsin B, at a final concentration of 1.5 nM (active site), is incubated with the compounds at twelve varying concentrations in a buffer containing 100 mM NaAc (pH5.5), 1 mM EDTA, 100 mM NaCl, 0.01% Brij-35 for 20 minutes at room temperature. Control reactions in the absence of inhibitor are performed in replicates of 24. The reactions are initiated by adding the substrate, acetyl-histidine-proline-valine-lysine-amino carbamoyl coumarin, to a final concentration of 10 μM. The rate of substrate hydrolysis is measured by monitoring the increase in fluorescence at an excitation wavelength of 380 nm and an emission wavelength of 450 nm that results from cleavage of the aniline bond in the substrate by the enzyme. The apparent inhibition constants for the compounds are determined from the enzyme progress curves (Kuzmie, P., K. C. Elrod, et al., Anal Biochem 2000, 286(1), 45-50) and are then used to calculate the inhibition constants for competitive inhibitors.

Cathepsin S = Cathepsin S (Homo sapiens, UniProt P25774); test: Cathepsin S inhibition, fluorogenic peptide substrate kinetic assay; settings: Cathepsin S inhibition constant, pH5.5, read-out: Ki Cat. S
Sequence of Cathepsin S (P25774 115-331, species assumed): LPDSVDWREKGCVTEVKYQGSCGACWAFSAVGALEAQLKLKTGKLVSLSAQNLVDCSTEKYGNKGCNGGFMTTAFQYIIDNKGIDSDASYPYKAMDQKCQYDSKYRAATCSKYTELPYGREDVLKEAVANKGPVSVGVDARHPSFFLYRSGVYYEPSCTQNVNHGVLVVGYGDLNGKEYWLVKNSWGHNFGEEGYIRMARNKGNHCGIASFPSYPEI
In short: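 Ki values derive from apparent constants fitted to progress curves, corrected for competition with substrate via [S] and Km. Kinetics were monitored at 380 nm excitation/450 nm emission, after substrate addition (Ac-HPVK-ACC, 50 μM final) to start the reaction.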

Sequence of Cathepsin L (P07711 114-333, species assumed): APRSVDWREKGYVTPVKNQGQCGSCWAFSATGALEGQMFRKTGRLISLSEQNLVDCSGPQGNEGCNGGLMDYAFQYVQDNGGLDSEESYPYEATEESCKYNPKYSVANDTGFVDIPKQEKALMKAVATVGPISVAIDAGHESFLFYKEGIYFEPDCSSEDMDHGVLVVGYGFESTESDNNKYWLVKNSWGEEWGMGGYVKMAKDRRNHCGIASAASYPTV

Row | Ki (Cathepsin L) [µM] | Ki (Cathepsin K) [µM] | Ki (Cathepsin B) [µM] | Ki (Cathepsin S; Table II) [µM] | Ki (Cathepsin S; Table III) [µM] | SMILES
1 | < 10 | > 10 | > 10 | < 0.1 | < 0.1 | CC(C(=O)N[C@@H](CC1CCCCC1)C(=O)NCCN1CCc2cc(F)ccc21)c1ccc(O)cc1 (stereo partly drawn) [Compound 101, N-{2-cyclohexyl-1-(S)-[2-(5-fluoro-2,3-dihydro-indol-1-yl)-ethylcarbamoyl]-ethyl}-2-(4-hydroxy-phenyl)-propionamide]
2 | < 0.1 | < 10 | > 10 | < 0.1 | < 0.1 | Cc1cccc(C(=O)N[C@@H](CC2CCCCC2)C(=O)NCCN2CCc3cc(F)ccc32)c1 [Compound 71, N—(S)-{2-cyclohexyl-1-[2-(5-fluoro-2,3-dihydro-indol-1-yl)-ethylcarbamoyl]-ethyl}-3-methyl-benzamide]
3 | < 10 | > 10 | > 10 | < 0.1 | < 0.1 | Cc1cccc(S(=O)(=O)N[C@@H](CC2CCCCC2)C(=O)N[C@@H](C)CN2CCc3cc(F)ccc32)c1 [Compound 251, (S,S)-3-Cyclohexyl-N-[2-(5-fluoro-2,3-dihydro-indol-1-yl)-1-methyl-ethyl]-2-(toluene-3-sulfonylamino)-propionamide]
4 | > 10 | > 10 | > 10 | < 0.1 | < 0.1 | Cn1nc(C(F)(F)F)cc1-c1ccc(S(=O)(=O)N[C@@H](CC2CCCCC2)C(=O)NCCN2CCc3cc(F)ccc32)s1 [Compound 231, (S)-3-Cyclohexyl-N-[2-(5-fluoro-2,3-dihydro-indol-1-yl)-ethyl]-2-[5-(2-methyl-5-trifluoromethyl-2H-pyrazol-3-yl)-thiophene-2-sulfonylamino]-propionamide]
5 | < 10 | < 10 | > 10 | < 0.1 | < 0.1 | CS(=O)(=O)Nc1ccc(C(=O)N[C@@H](CC2CCCCC2)C(=O)NCCN2CCc3cc(F)ccc32)cc1 [Compound 81, N-(S)-{2-cyclohexyl-1-[2-(5-fluoro-2,3-dihydro-indol-1-yl)-ethylcarbamoyl]-ethyl}-4-methanesulfonylamino-benzamide]
6 | < 1 | < 10 | > 10 | < 0.1 | < 0.1 | Cc1cccc(C(=O)N[C@@H](CC2CCCC2)C(=O)NCCN2CCc3cc(F)ccc32)c1 [Compound 201, (S)-N-{2-Cyclopentyl-1-[2-(5-fluoro-2,3-dihydro-indol-1-yl)-ethylcarbamoyl]-ethyl}-3-methyl-benzamide]
7 |  |  |  | < 1 |  | O=C(NCCN1CCc2cc(F)ccc21)[C@H](CC1CCCCC1)NS(=O)(=O)c1ccc(S(=O)(=O)c2ccccc2)s1 [Compound 256, (S)-2-(5-Benzenesulfonyl-thiophene-2-sulfonylamino)-3-cyclohexyl-N-[2-(5-fluoro-2,3-dihydro-indol-1-yl)-ethyl]-propionamide]
8 |  |  |  | < 0.1 |  | COc1ccc(-c2ccc(S(=O)(=O)N[C@@H](CC3CCCCC3)C(=O)NCCN3CCc4cc(F)ccc43)cc2)cc1 [Compound 238, (S)-3-Cyclohexyl-N-[2-(5-fluoro-2,3-dihydro-indol-1-yl)-ethyl]-2-(4′-methoxy-biphenyl-4-sulfonylamino)-propionamide]

The remaining lines, values behind:

Row | SMILES | Ki (Cathepsin L) [µM] | Ki (Cathepsin K) [µM] | Ki (Cathepsin B) [µM] | Ki (Cathepsin S; Table II) [µM] | Ki (Cathepsin S; Table III) [µM]
9 | C[C@@H](CNc1ccc(OC(F)(F)F)cc1)NC(=O)[C@H](CC1CCCCC1)NC(=O)c1cnn(-c2cccc(F)c2)c1 [Compound 141, 1-(3-Fluoro-phenyl)-1H-pyrazole-4-carboxylic acid {2-cyclohexyl-1-(S)-[1-(S)-methyl-2-(4-trifluoromethoxy-phenylamino)-ethylcarbamoyl]-ethyl}-amide] | < 10 | > 10 | > 10 | < 0.1 | < 0.1
10 | C[C@@H](CNc1cc(F)ccc1F)NC(=O)[C@H](CC1CCCCC1)NC(=O)c1ccc(-c2cccc(F)c2)o1 [Compound 91, 5-(3-Fluoro-phenyl)-furan-2-carboxylic acid {2-cyclohexyl-1-(S)-[2-(2,5-difluoro-phenylamino)-1-(S)-methyl-ethylcarbamoyl]-ethyl}-amide] | < 1 | < 10 | < 10 | < 0.1 | < 0.1
11 | O=C(NC(CCC1CCCCC1)C(=O)NC(COCc1ccccc1)CN1CCc2cc(F)ccc21)c1cc2ccccc2[nH]1 (mixture of isomers) [Compound 41, 1H-Indole-2-carboxylic acid {(1S)-[2-benzyloxy-(1R)-(5-fluoro-2,3-dihydro-indol-1-ylmethyl)-ethylcarbamoyl]-3-cyclohexyl-propyl}-amide] | < 1 | > 10 | < 1 | < 0.1 | < 0.1
12 | C[C@@H](CNc1cccc(C(N)=O)c1)NC(=O)[C@H](CC(C)(C)C)NC(=O)c1ccc(-c2cccc(F)c2)o1 [Compound 131, 5-(3-Fluoro-phenyl)-furan-2-carboxylic acid {1-(S)-[2-(3-carbamoyl-phenylamino)-1-(S)-methyl-ethylcarbamoyl]-3,3-dimethyl-butyl}-amide] | > 10 | < 1 | > 10 | < 0.1 | < 0.1
13 | C[C@@H](CNc1ccc(OC(F)(F)F)cc1)NC(=O)[C@H](CC1CCCC1)NC(=O)O[C@@H]1CCOC1 [Compound 191, (S,S)-{2-Cyclopentyl-1-[1-methyl-2-(4-trifluoromethoxy-phenylamino)-ethylcarbamoyl]-ethyl}-carbamic acid tetrahydrofuran-3-(R)-yl ester] | > 10 | < 10 | > 10 | < 0.1 | < 0.1
14 | COc1ccc(NCC(C)NC(=O)[C@H](CC(C)C)NC(=O)c2cccc(C)c2)cc1 (mixture of isomers) [Compound 21, N-{1-(S)-[2-(4-Methoxy-phenylamino)-1-methyl-ethylcarbamoyl]-3-methyl-butyl}-3-methyl-benzamide] |  |  | > 10 |  | 
15 | COc1cccc(C(=O)N[C@@H](CCC2CCCCC2)C(=O)N[C@H](CN2CCc3cc(F)ccc32)c2ccccc2)c1 [Compound 51, (S,S)-N-{3-Cyclohexyl-1-[2-(5-fluoro-2,3-dihydro-indol-1-yl)-1-phenyl-ethylcarbamoyl]-propyl}-3-methoxy-benzamide] |  |  | > 10 |  | 
16 | O=C(N[C@H](C(=O)N[C@@H](COCc1ccccc1)CN1CCc2cc(F)ccc21)c1ccc(Cl)cc1Cl)c1ccc(F)c(F)c1 [Compound 211, N-(S)-((3-(benzyloxy)-1-(5-fluoroindolin-1-yl)propan-2-(R)-ylcarbamoyl)(2,4-dichlorophenyl)methyl)-3,4-difluorobenzamide] | < 10 | > 10 | > 10 | < 0.1 | < 0.1
17 | COC(=O)c1ccc(COC[C@@H](CN2CCc3cc(F)ccc32)NC(=O)[C@H](CCC2CCCCC2)NC(=O)c2cccc(OC)c2)cc1 [Compound 171, 4-{2-(R)-[4-Cyclohexyl-2-(S)-(3-methoxy-benzoylamino)-butyrylamino]-3-(5-fluoro-2,3-dihydro-indol-1-yl)-propoxymethyl}-benzoic acid methyl ester] | < 10 | > 10 | > 10 | < 0.1 | < 0.1
